For two compounds, Activity results are on record in ChEMBL document CHEMBL4266064, “B-973, a Novel α7 nAChR Ago-PAM: Racemic and Asymmetric Synthesis, Electrophysiological Studies, and in Vivo Evaluation” (ACS Med Chem Lett, 2018).

Assay [1] deals with Neuronal acetylcholine receptor subunit alpha-7 (Homo sapiens) (UniProt P36544). Kind of assay: Positive allosteric modulation of human alpha7 nAChR expressed in Xenopus laevis oocytes assessed as increase in acetyl choline-evoked currents at 100 uM pretreated followed by co-treatment with acetyl choline for 21 secs and subsequent compound washout measured after 181 secs by electrophysiology method. It counts as cell-based.
Chain of Neuronal acetylcholine receptor subunit alpha-7 (Homo sapiens) (P36544 whole entry): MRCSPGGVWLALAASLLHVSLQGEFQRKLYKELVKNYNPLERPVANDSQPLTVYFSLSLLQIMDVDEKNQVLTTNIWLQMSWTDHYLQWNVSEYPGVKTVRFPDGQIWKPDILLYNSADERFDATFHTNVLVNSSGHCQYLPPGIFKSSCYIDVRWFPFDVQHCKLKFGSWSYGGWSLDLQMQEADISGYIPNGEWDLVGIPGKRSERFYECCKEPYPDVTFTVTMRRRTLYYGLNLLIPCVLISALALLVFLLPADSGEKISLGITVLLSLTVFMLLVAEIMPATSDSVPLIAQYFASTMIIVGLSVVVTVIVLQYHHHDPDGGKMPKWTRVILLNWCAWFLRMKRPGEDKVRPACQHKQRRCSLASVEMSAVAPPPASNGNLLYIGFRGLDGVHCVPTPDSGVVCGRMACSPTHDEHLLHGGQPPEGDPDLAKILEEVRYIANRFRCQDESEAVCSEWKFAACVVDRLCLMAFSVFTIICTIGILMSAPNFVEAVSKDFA

Assay [2] shares this target. Kind of assay: Positive allosteric modulation of human alpha7 nAChR expressed in Xenopus laevis oocytes assessed as increase in acetyl choline-evoked currents at 10 to 100 uM treated for 21 secs followed by compound washout measured after 181 secs by electrophysiology method. The class given is cell-based.
The subject of assay [3] is Mus musculus. Description: Antinociceptive activity in formalin-induced nociception pain ICR mouse model assessed as reduction in time spent licking in hind paw at 10 mg/kg, ip administered 15 mins prior to formalin challenge measured up to 5 mins. It counts as functional, organism-based.
In assay [4] the target is Neuronal acetylcholine receptor subunit alpha-7 (Homo sapiens) (UniProt P36544). Description: Positive allosteric modulation of human alpha7 nAChR expressed in Xenopus laevis oocytes assessed as increase in acetyl choline-evoked currents at 10 uM pretreated followed by co-treatment with acetyl choline for 21 secs and subsequent compound washout measured after 181 secs by electrophysiology method. It counts as cell-based.

For assay [5], the system named is Mus musculus. Kind of assay: Antinociceptive activity in ip dosed formalin-induced nociception pain ICR mouse model assessed as reduction in time spent licking in hind paw administered 15 mins prior to formalin challenge measured after 20 to 45 mins. The class given is functional, organism-based.
The subject of assay [6] is Mus musculus. Description: Antinociceptive activity in formalin-induced nociception pain ICR mouse model assessed as reduction in paw edema at 3 to 10 mg/kg, ip administered 15 mins prior to formalin challenge measured after 1 hr by calliper method. The class given is functional, organism-based.
Assay [7] has as its system Mus musculus. Description: Antinociceptive activity in formalin-induced nociception pain ICR mouse model assessed as reduction in time spent licking in hind paw at 10 mg/kg, ip administered 15 mins prior to formalin challenge measured after 20 to 45 mins in presence of alpha7 nAChR antagonist MLA. The class given is functional, organism-based.
Assay [8] relates to Mus musculus. Description: Antinociceptive activity in formalin-induced nociception pain ICR mouse model assessed as reduction in time spent licking in hind paw at 10 mg/kg, ip administered 15 mins prior to formalin challenge measured up to 5 mins in presence of alpha7 nAChR antagonist MLA. It counts as functional, organism-based.

Activity calls are given as the source filed them. The calls are words filed in the database; no cut-off is given here.

On to `C[C@@H](NC(=O)CCc1ccc(F)c(F)c1)c1cncc(N2CCN(c3ccccn3)CC2)n1`, for which the outcome in assay [1] and in assay [2] was inactive.
As for `C[C@H](NC(=O)CCc1ccc(F)c(F)c1)c1cncc(N2CCN(c3ccccn3)CC2)n1`, the outcome (in assay [1]; in the assay with Mus musculus [3]; in assay [4]; in the assay on Mus musculus [6]; in assay [2]) was Active. Also, the Activity entry in the assay on Mus musculus [5] was “Dose-dependent effect”. In addition, the outcome in the assay on Mus musculus [7] and in the assay with Mus musculus [8] was inactive.
